Test results published in US12576087B2, “Aryloxypiperidine pyrazole compounds as indoleamine 2,3-dioxygenase inhibitors” (Merck Sharp & Dohme LLC, priority 2018, dated 2026).

Biological target: IDO1 (Homo sapiens, UniProt P14902)
Test: IDO1 Human Whole Blood Assay
Assay type: cell-based
Conditions: WBLD taken as whole blood; read-out: WBLD IC50
Method: Compounds to be tested were serially diluted in ten 3-fold steps in DMSO starting from 10 mM. 3 μL of compound dilutions or DMSO alone were then dispensed from the dilution plate into a polypropylene 96-well assay plate containing 97 μL of RPMI medium using an Echo 555 acoustic liquid handler (Labcyte). LPS and IFNγ was prepared in RPMI medium to a 10× of final conc. (1000 ng/mL), final concentration is 100 ng/mL.
Human whole blood was drawn in sodium heparin coated tubes from healthy internal donors. 240 μL of blood was transferred to each of the wells of a v-bottom 96 well plate. 30 μL of compound was transferred from intermediate dilution plate, and incubated for 15 min. 30 μL from stimulants was then transferred to blood and mixed thoroughly. Plate was covered with breathable membrane and incubated at 37° C. for overnight (18 h).
On day 2, isotope labeled standard solutions of kunurenine and tryptophan was made in water at 10× concentration and 30 μL was added to the blood at 3 μM final concentration. The assay plates were centrifuged at 300×G for 10 min with no brake to separate plasma from red blood cells. 60 μL of plasma samples was removed without disturbing red blood cells. Plasma was diluted with RPMI in 1:1 ratio and proteins were precipitated out with two volumes of Acetonitrile. The plates were centrifuged at 4000×G for 60 min. 20 μL of supernatant was carefully transferred to a 384 well plate containing 40 μL of 0.1% formic acid in water and analyzed by LC/MS/MS.
LC/MS/MS analyses were performed using Thermo Fisher's LX4-TSQ Quantum Ultra system. This system consists of four Agilent binary high-performance liquid chromatography (HPLC) pumps and a TSQ Quantum Ultra triple quadrupole MS/MS instrument. For each sample, 5 μL were injected onto an Atlantis T3 column (2.1 mm×150 mm, 3 μm particle size) from Waters. The mobile phase gradient pumped at 0.8 mL/min was used to elute the analytes from the column at 25° C. The elution started at 0% B increasing linearly to 25% B at 6.5 min, holding at 25% for 1 min, re-equilibrating to 10 min. Mobile phase A consisted of 0.1% formic acid in water. Mobile phase B consisted of 0.1% of formic acid in acetonitrile. Data were acquired in positive mode using a HESI interface. The operational parameters for the TSQ Quantum Ultra instrument were a spray voltage of 4000 V, capillary temperature of 380° C., vaporizer temperature 400° C., shealth gas 60 arbitrary units, Aux gas 20 arbitrary units, tube lens 85 and collision gas 1.2 mTorr. SRM chromatograms of kynurenine (Q1: 209.2>Q3:94.0) and internal standard (Q1: 215.3>Q3:98.2) were collected for 90 sec. The peak area was integrated by Xcalibur Quan software. The ratios between the kynurenine generated in the reaction and 2D6-Kynurenine spiked-in internal standard were used to generate percentage inhibition and IC50 values. Compounds were titrated and IC50's were calculated by 4 parameter sigmoidal curve fitting formula.

Chain of IDO1 (P14902 whole entry): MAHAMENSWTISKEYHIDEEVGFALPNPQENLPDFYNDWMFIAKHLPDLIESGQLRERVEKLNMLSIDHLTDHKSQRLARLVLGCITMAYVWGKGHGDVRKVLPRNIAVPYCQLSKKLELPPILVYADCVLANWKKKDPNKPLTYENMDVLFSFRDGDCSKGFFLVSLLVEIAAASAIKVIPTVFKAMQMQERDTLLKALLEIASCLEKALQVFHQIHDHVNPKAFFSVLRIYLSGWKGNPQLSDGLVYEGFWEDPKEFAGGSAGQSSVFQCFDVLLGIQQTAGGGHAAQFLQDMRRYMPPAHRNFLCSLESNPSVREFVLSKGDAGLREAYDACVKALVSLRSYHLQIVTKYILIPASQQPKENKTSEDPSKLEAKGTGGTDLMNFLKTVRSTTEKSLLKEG

IC50 [nM] | SMILES
85.9 | Cc1ccccc1OC1CCN(C(=O)Cn2nc(C(=O)N3CCC(O)CC3)c3c2CCC3)CC1 [Example 33, 2-(3-(4-hydroxypiperidine-1-carbonyl)-5,6-dihydrocyclopenta[c]pyrazol-1(4H)-yl)-1-(4-(o-tolyloxy)piperidin-1-yl)ethanone]
140 | Cc1ccccc1OC1CCN(C(=O)Cn2nc(C(=O)N3CCC(O)(CF)CC3)c3c2CCC3)CC1 [Example 35, 2-(3-(4-(fluoromethyl)-4-hydroxypiperidine-1-carbonyl)-5,6-dihydrocyclopenta[c]pyrazol-1(4H)-yl)-1-(4-(o-tolyloxy)piperidin-1-yl)ethanone]
108 | Cc1ccccc1OC1CCN(C(=O)Cn2nc(C(=O)N3CC[C@@H](O)[C@@H](F)C3)c3c2CCCC3)CC1 [Example 36, 2-(3-((3S,4R)-3-fluoro-4-hydroxypiperidine-1-carbonyl)-4,5,6,7-tetrahydro-1H-indazol-1-yl)-1-(4-(o-tolyloxy)piperidin-1-yl)ethanone]
33 | Cc1ccccc1OC1CCN(C(=O)Cn2nc(C(=O)N3CCN(C(=O)CO)CC3)c3c2CCCC3)CC1 [Example 38, 2-hydroxy-1-(4-(1-(2-oxo-2-(4-(o-tolyloxy)piperidin-1-yl)ethyl)-4,5,6,7-tetrahydro-1H-indazole-3-carbonyl)piperazin-1-yl)ethanone]
107 | Cc1ccccc1OC1CCN(C(=O)Cn2nc(C(=O)N3CC[C@@H](O)[C@@H](F)C3)c3c2CCC3)CC1 [Example 40, 2-(3-((3S,4R)-3-fluoro-4-hydroxypiperidine-1-carbonyl)-5,6-dihydrocyclopenta[c]pyrazol-1(4H)-yl)-1-(4-(o-tolyloxy)piperidin-1-yl)ethanone]
101 | C[C@@H]1C[C@H](Oc2ccccc2Cl)CCN1C(=O)Cn1nc(C(=O)N2CC[C@@H](O)[C@@H](F)C2)c2c1C[C@H]1C[C@@H]21 [Example 52, 1-((2R,4R)-4-(2-chlorophenoxy)-2-methylpiperidin-1-yl)-2-((3bR,4aR)-3-((3S,4R)-3-fluoro-4-hydroxypiperidine-1-carbonyl)-3b,4,4a,5-tetrahydro-1H-cyclopropa[3,4]cyclopenta[1,2-c]pyrazol-1-yl)ethanone]
59.8 | Cc1cc(F)ccc1OC1CCN(C(=O)Cn2nc(C(=O)N3CCC(OCCO)CC3)c3c2CCCC3)CC1 [Example 76, 1-[4-(4-fluoro-2-methyl-phenoxy)-1-piperidyl]-2-[3-[4-(2-hydroxyethoxy)piperidine-1-carbonyl]-4,5,6,7-tetrahydroindazol-1-yl]ethanone]
19.7 | Cc1cc(F)ccc1OC1CCN(C(=O)Cn2nc(C(=O)N3CCC(F)(CO)CC3)c3c2CCCC3)CC1 [Example 78, 2-[3-[4-fluoro-4-(hydroxymethyl)piperidine-1-carbonyl]-4,5,6,7-tetrahydroindazol-1-yl]-1-[4-(4-fluoro-2-methyl-phenoxy)-1-piperidyl]ethanone]
140 | Cc1cc(F)ccc1OC1CCN(C(=O)Cn2nc(C(=O)N3CCN(C(=O)CO)CC3)c3c2CCCC3)CC1 [Example 79, 1-[4-(4-fluoro-2-methyl-phenoxy)-1-piperidyl]-2-[3-[4-(2-hydroxyacetyl)piperazine-1-carbonyl]-4,5,6,7-tetrahydroindazol-1-yl]ethanone]
259 | Cc1cc(F)ccc1OC1CCN(C(=O)Cn2nc(C(=O)N3CCC(F)(CO)CC3)c3c2CCC3)CC1 [Example 80, 2-[3-[4-fluoro-4-(hydroxymethyl)piperidine-1-carbonyl]-5,6-dihydro-4H-cyclopenta[c]pyrazol-1-yl]-1-[4-(4-fluoro-2-methyl-phenoxy)-1-piperidyl]ethanone]
89.8 | Cc1cc(F)ccc1OC1CCN(C(=O)Cn2nc(C(=O)N3CCO[C@H](CO)C3)c3c2CCCC3)CC1 [Example 81, 1-[4-(4-fluoro-2-methyl-phenoxy)-1-piperidyl]-2-[3-[(2S)-2-(hydroxymethyl)morpholine-4-carbonyl]-4,5,6,7-tetrahydroindazol-1-yl]ethanone]
142 | Cc1ccc(F)cc1OC1CCN(C(=O)Cn2nc(C(=O)N3C[C@@H](C)O[C@@H](C)C3)c3c2CCC3)CC1 [Example 90, 2-(3-(cis-2,6-Dimethylmorpholine-4-carbonyl)-5,6-dihydrocyclopenta[c]pyrazol-1(4H)-yl)-1-(4-(5-fluoro-2-methylphenoxy)piperidin-1-yl)ethan-1-one]
86.6 | C[C@@H]1CN(C(=O)c2nn(CC(=O)N3CCC(Oc4cc(F)ccc4Br)CC3)c3c2CCC3)C[C@H](C)O1 [Example 91, 1-[4-(2-bromo-5-fluorophenoxy)piperidin-1-yl]-2-{3-[(2R,6S)-2,6-dimethylmorpholine-4-carbonyl]-5,6-dihydrocyclopenta[c]pyrazol-1(4H)-yl}ethan-1-one]
265 | Cc1ccc(Cl)c(OC2CCN(C(=O)Cn3nc(C(=O)N4C[C@@H](C)O[C@@H](C)C4)c4c3CCC4)CC2)c1 [Example 93, 1-[4-(2-chloro-5-methylphenoxy)piperidin-1-yl]-2-{3-[(2R,6S)-2,6-dimethylmorpholine-4-carbonyl]-5,6-dihydrocyclopenta[c]pyrazol-1(4H)-yl}ethan-1-one]
360 | Cc1ccc(OC2CCN(C(=O)Cn3nc(C(=O)N4C[C@@H](C)O[C@@H](C)C4)c4c3CCC4)CC2)cc1 [Example 95, 2-{3-[(2R,6S)-2,6-dimethylmorpholine-4-carbonyl]-5,6-dihydrocyclopenta[c]pyrazol-1(4H)-yl}-1-[4-(4-methylphenoxy)piperidin-1-yl]ethan-1-one]
575 | C[C@@H]1CN(C(=O)c2nn(CC(=O)N3CCC(Oc4cccc(F)c4)CC3)c3c2CCC3)C[C@H](C)O1 [Example 99, 2-{3-[(2R,6S)-2,6-dimethylmorpholine-4-carbonyl]-5,6-dihydrocyclopenta[c]pyrazol-1(4H)-yl}-1-[4-(3-fluorophenoxy)piperidin-1-yl]ethan-1-one]
46.8 | Cc1ccccc1OC1CCN(C(=O)Cn2nc(C(=O)N3C[C@@H](C)O[C@@H](C)C3)c3c2CCC3)CC1 [Example 116, 2-{3-[(2R,6S)-2,6-dimethylmorpholine-4-carbonyl]-5,6-dihydrocyclopenta[c]pyrazol-1(4H)-yl}-1-[4-(2-methylphenoxy)piperidin-1-yl]ethan-1-one]
490 | C[C@@H]1CN(C(=O)c2nn(CC(=O)N3CCC(Oc4ccc(F)cc4Cl)CC3)c3c2CCC3)C[C@H](C)O1 [Example 117, 1-[4-(2-chloro-4-fluorophenoxy)piperidin-1-yl]-2-{3-[(2R,6S)-2,6-dimethylmorpholine-4-carbonyl]-5,6-dihydrocyclopenta[c]pyrazol-1(4H)-yl}ethan-1-one]
49.2 | Cc1c(F)cccc1OC1CCN(C(=O)Cn2nc(C(=O)N3C[C@@H](C)O[C@@H](C)C3)c3c2CCC3)CC1 [Example 128, 2-{3-[(2R,6S)-2,6-dimethylmorpholine-4-carbonyl]-5,6-dihydrocyclopenta[c]pyrazol-1(4H)-yl}-1-[4-(3-fluoro-2-methylphenoxy)piperidin-1-yl]ethan-1-one]
3320 | C[C@@H]1CN(C(=O)c2nn(CC(=O)N3CCC(Oc4ccc(Cl)c5c4CCC5)CC3)c3c2CCC3)C[C@H](C)O1 [Example 129, 1-{4-[(7-chloro-2,3-dihydro-1H-inden-4-yl)oxy]piperidin-1-yl}-2-{3-[(2R,6S)-2,6-dimethylmorpholine-4-carbonyl]-5,6-dihydrocyclopenta[c]pyrazol-1(4H)-yl}ethan-1-one]
150 | C[C@@H]1CN(C(=O)c2nn(CC(=O)N3CCC(Oc4cc(F)ccc4Cl)CC3)c3c2CCC3)C[C@H](C)O1 [Example 133, 1-[4-(2-chloro-5-fluorophenoxy)piperidin-1-yl]-2-{3-[(2R,6S)-2,6-dimethylmorpholine-4-carbonyl]-5,6-dihydrocyclopenta[c]pyrazol-1(4H)-yl}ethan-1-one]
112 | Cc1ccc(F)cc1OC1CCN(C(=O)Cn2nc(C(=O)N3C[C@@H](C)O[C@@H](C)C3)c3c2CCC3)CC1 [Example 135, 2-[3-(2,6-dimethylmorpholine-4-carbonyl)-5,6-dihydrocyclopenta[c]pyrazol-1(4H)-yl]-1-[4-(5-fluoro-2-methylphenoxy)piperidin-1-yl]ethan-1-one]
